Laboratory results: patent publication US12042473B2, “Compounds and combinations thereof for treating neurological and psychiatric conditions” (priority 2022, dated 2024)
Counter-ions that a name gives are not always drawn. Like-named read-outs stand apart in the source and are kept apart here.

Assays:
[1] = Co-administration of paroxetine and the subject combination in healthy volunteers (Example 3)
Source text: Co-administration of the SSRI paroxetine and the subject combination was studied in 29 healthy volunteers.

[2] = human, in vivo
[3] = Food effect on pharmacokinetics of the subject combination; format: in vivo, human; conditions: subject combination administered with food
[4] = Pharmacokinetics of the subject combination in CYP2D6 poor metabolizers (Example 2)
Source text: Approximately 7 to 10% of Caucasians and 3 to 8% of African Americans lack the capacity to metabolize CYP2D6 substrates and are classified as poor metabolizers.

[5] = Pharmacokinetics after administration of the subject combination (steady state); conditions: for apparent elimination half-life: bupropion metabolites
[6] = Pharmacokinetics of the subject combination in moderate renal impairment (Example 1); conditions: moderate renal impairment (GFR 30-60 mL/min)
[7] = cited from earlier work; for incidence of sedation (MOAA/S score <5): treatment-resistant depression

CC(NC(C)(C)C)C(=O)c1cccc(Cl)c1.Cl (racemic) [bupropion, (±)-1-(3-chlorophenyl)-2-[(1,1-dimethylethyl)amino]-1-propanone hydrochloride]
increase in overall exposure when paroxetine is co-administered with the subject combination ([1]; human, in vivo): no effect | increase in exposure versus matched controls with normal renal function [2]: approximately 2 fold | reduction in clearance versus matched controls with normal renal function [2]: 50%

COc1ccc2c(c1)[C@]13CCCC[C@@H]1[C@H](C2)N(C)CC3 [dextromethorphan, morphinan, 3-methoxy-17-methyl-, (9α, 13α, 14α), hydrobromide monohydrate]
decrease in AUC0-12 with food [3]: 14% | steady state plasma concentrations compared with non-poor metabolizers ([4]; 12 poor metabolizers in efficacy trials): generally higher | increase in AUC0-12 compared to extensive metabolizers ([4]; CYP2D6 poor metabolizers): ~3.4 fold | increase in Cmax compared to extensive metabolizers ([4]; CYP2D6 poor metabolizers): ~3 fold | increase in overall exposure when paroxetine is co-administered with the subject combination ([1]; healthy volunteers): 2.5 fold | increase in mean elimination half-life versus dextromethorphan given without bupropion ([5]; 8 days of subject combination, extensive metabolizers): approximately 3 fold | median Tmax ([5]; after administration of the subject combination): about 3 hours | dose proportionality of AUC and Cmax at steady state ([5]; co-administered with bupropion, dextromethorphan 30 to 60 mg, bupropion 75 to 150 mg): nonlinear pharmacokinetics | mean elimination half-life ([5]; human, in vivo): 22 h | increase in exposure versus matched controls with normal renal function [6]: approximately 2 fold | reduction in clearance versus matched controls with normal renal function [6]: 50%

CC(NC(C)(C)C)C(O)c1cccc(Cl)c1 (stereo not shown) [erythrohydroxybupropion]
apparent elimination half-life [5]: ~44 h

CN[C@]1(c2ccccc2Cl)CCCCC1=O [esketamine, Esketamine]
incidence of sedation (MOAA/S score <5) ([7]; 56 mg + oral AD, patients <65 years, fixed-dose study): 50% | incidence of sedation (MOAA/S score <5) ([7]; 84 mg + oral AD, patients <65 years, fixed-dose study): 61% | incidence of sedation (MOAA/S score <5) ([7]; 28 to 84 mg + oral AD, patients ≥65 years, flexible-dose study): 49% | incidence of sedation (MOAA/S score<5) compared to placebo plus oral antidepressant ([7]; plus oral antidepressant, adults with MDD with acute suicidal ideation or behavior): higher incidence of sedation

C[C@H]1NC(C)(C)CO[C@]1(O)c1cccc(Cl)c1 [hydroxybupropion]
apparent elimination half-life [5]: approximately 35 hours

Fc1ccc([C@@H]2CCNC[C@H]2COc2ccc3c(c2)OCO3)cc1 [paroxetine]
increase in overall exposure of paroxetine when co-administered with the subject combination ([1]; human, in vivo): 1.2 fold

C[C@H](NC(C)(C)C)[C@@H](O)c1cccc(Cl)c1 [threohydroxybupropion]
apparent elimination half-life [5]: ~33 h
